Test results published in article PMC7369900 (International Journal of Molecular Sciences, 2020).
Converted amounts (≈) assume the structure as drawn.

What was measured:
[1] = tested on: S. epidermidis ATCC 12228; test: microbe, parasite or virus in culture; format: cell-based, Staphylococcus epidermidis; details: S. epidermidis ATCC 12228, MHB
Procedure: (§1) The antibacterial activity of TP10-NH2-based conjugates, as well as its constituents, was evaluated by microdilution assay in Mueller Hinton broth, MHB (Table 1). […] There are, however, some exceptions. […] Its activity against two other tested bacteria was somewhat lower though.
(§2) The antibacterial activity (bacteriostatic: MIC and bactericidal: MBC) of the tested compounds was determined in MHB (Mueller Hinton Broth, Sigma Aldrich, St. Louis, MO, USA) using a serial two-fold dilution method in 96-well microtiter plates according to CLSI recommendations, described in M07-A10 document. The exact conditions have been described previously. All experiments were performed in three replicates. The MIC90 and MIC50 values were defined as the concentrations of compounds tested that caused a 90% or 50% reduction of growth, respectively, comparing to the drug-free control.

[2] = Stability in PBS and growth media; format: physicochemical; details: phosphate-buffered saline and growth media used for antibacterial and antifungal tests
Excerpt: CIP-S-S-TP10-NH2 was stable in phosphate-buffered saline (PBS) and growth media used for the determination of antibacterial and antifungal in vitro activity.

E. coli ATCC 25922 = test: microbe, parasite or virus in culture; format: cell-based, Escherichia coli; details: E. coli ATCC 25922, MHB
Procedure: as §1, §2

[3] = tested on: C. albicans Δopt1Δopt5Δptr2Δptr22
[4] = molecular target: T1, yeast DNA topoisomerase II (Saccharomyces cerevisiae, UniProt P06786); test: biochemical; format: biochemical; details: class; read-out: Topoisomerase II Inhibition
T1 construct: purchased Inspiralis (Norwich, UK)
T1 sequence (P06786 whole entry): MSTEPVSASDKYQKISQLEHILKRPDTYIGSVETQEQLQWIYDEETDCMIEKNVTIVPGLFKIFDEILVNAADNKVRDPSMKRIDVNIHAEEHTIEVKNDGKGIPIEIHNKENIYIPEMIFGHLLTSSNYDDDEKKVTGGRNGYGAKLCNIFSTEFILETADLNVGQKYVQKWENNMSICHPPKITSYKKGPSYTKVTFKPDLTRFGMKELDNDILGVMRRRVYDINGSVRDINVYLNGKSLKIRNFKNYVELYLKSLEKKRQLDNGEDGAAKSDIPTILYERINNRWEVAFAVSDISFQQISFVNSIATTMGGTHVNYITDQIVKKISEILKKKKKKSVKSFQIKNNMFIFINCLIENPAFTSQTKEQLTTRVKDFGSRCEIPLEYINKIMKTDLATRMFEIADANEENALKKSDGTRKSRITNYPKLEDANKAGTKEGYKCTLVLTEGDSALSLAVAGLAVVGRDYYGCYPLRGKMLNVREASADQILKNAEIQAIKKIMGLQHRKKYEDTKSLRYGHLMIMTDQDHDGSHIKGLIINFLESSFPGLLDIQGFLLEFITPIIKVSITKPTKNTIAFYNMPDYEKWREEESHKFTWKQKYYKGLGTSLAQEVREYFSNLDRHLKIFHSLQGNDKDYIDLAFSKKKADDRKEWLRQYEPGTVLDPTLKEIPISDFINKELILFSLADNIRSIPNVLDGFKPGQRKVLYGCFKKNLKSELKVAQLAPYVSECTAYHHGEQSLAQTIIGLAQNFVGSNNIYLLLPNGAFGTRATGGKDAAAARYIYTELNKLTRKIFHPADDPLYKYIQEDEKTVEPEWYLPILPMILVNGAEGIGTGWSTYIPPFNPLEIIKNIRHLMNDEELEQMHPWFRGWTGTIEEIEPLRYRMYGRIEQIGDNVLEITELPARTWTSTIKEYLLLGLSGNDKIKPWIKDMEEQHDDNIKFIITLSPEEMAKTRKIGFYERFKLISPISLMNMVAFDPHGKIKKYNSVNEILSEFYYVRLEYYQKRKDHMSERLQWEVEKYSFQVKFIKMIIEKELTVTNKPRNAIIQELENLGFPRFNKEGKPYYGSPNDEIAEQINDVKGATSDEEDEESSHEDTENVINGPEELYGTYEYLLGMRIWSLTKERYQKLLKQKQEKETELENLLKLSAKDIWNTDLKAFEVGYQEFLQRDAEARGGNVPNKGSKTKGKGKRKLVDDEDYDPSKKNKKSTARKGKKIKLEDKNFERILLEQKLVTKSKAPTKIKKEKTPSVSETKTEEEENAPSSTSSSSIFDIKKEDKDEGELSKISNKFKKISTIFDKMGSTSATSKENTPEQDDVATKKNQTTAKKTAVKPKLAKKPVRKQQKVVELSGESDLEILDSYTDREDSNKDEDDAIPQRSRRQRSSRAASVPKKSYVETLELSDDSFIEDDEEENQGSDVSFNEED

LLC-PK1 = test: cells; format: cell-based, pig; details: LLC-PK1, 72 h, MTT
Procedure: (§3) Among the conjugates, LVXC-S-S-CTP10-NH2 (5) was the least cytotoxic. […] In the case of HEK 293 and LLC-PK1 cells, the IC50 values of 5 were nearly four times higher. […] Additionally, we noted that the cancer cells Hep G2 were less sensitive to the action of the given compounds than the non-cancer cells (HEK 293 and LLC-PK1).
(§4) Cytotoxicity was assessed against three mammalian cell lines: LLC-PK1, Hep G2, and HEK 293. Multiwell (96–well) plates were seeded at 7000 cells/well in Medium 199 supplemented with 7.5% FBS, MEM Eagle’s medium supplemented with 10% FBS, or DMEM medium supplemented with 10% FBS, respectively. All media were supplemented with L-glutamine and antibiotics (penicillin/streptomycin). Cells were allowed to attach overnight. Drugs were dissolved in cell culture medium and added to wells in 100-µL aliquots of 2× concentrated solutions, in triplicates. To control wells, 100 µL of the medium were added. Cells were incubated with the studied compounds for 72 h at 37 °C and 95%/5% or 90%/10% (HEK 293 cells) CO2 atmosphere. Then, 20-µL aliquots of MTT solution in PBS (4 mg/mL) were added to all wells and plates were incubated further for 3 h in 37 °C. Formazan crystals formed were dissolved in 100 µL of DMSO and the absorbance of the solutions was measured using a multiwell plate reader (Spark, Tecan, Männedorf, Switzerland) at λ = 540 nm. Cytotoxicity was determined compared to the drug-free control. All experiments were performed in triplicates.

HEK 293 [5] = test: cells; format: cell-based, human; details: HEK 293, 72 h, MTT
Procedure: as §3, §4

Hep G2 = test: cells; format: cell-based, human; details: Hep G2, 72 h, MTT
Procedure: as §3, §4

HL-60 = test: ROS generation (CM-H2DCFDA, flow cytometry); format: cell-based, human; details: positive cells in 24 h, class
Procedure: (§5) In the positive controls treated with H2O2, the fraction of ROS-positive cells exceeded 75%. […] Strikingly, in HL-60, a biologically significant effect was observed almost immediately (after 15 min of incubation). The same was noted after 1 h in the HEK 293 cell line. […] Similarly, conjugates 4 and 5 generated ROS at the low level (less than 15% for HL-60 and less than 20% for HEK 293) (manuscript in preparation). […] For HL-60, the critical level of ROS was noted after 15 min of incubation.
(§6) ROS generation activity was evaluated as described previously. Briefly, HEK 293 cells were seeded on 35-mm Petri dishes in the amount of 15,000 cells per plate for 24 h in DMEM medium. […] Positive controls contained 250 µM H2O2, while negative controls were without any additions. After 0.5, 2.5, 5.5, and 24 h of incubation at 37 °C, the CM-H2DCFDA molecular probe (Thermo Fischer Scientific, Waltham, USA) was added to the plates and incubation was continued for another 0.5 h. The HEK 293 cells were detached with 0.05% trypsin solution in PBS and HBSS (Hank’s Balanced Salt Solution) and suspended in fresh DMEM medium. All samples were additionally stained with 7-AAD (7-aminoactinomycin D, 0.8 µg/mL) and immediately analysed with a Guava easyCyte flow cytometer (Merc, Burlington, USA). The determinations were performed in triplicates.

HEK 293 [6] = test: ROS generation (CM-H2DCFDA, flow cytometry); format: cell-based, human; details: positive cells in 24 h, class
Procedure: as §5, §6

S. aureus ATCC 29213 = test: microbe, parasite or virus in culture; format: cell-based, Staphylococcus aureus; details: S. aureus ATCC 29213, MHB
Procedure: as §1, §2

HL-60 and HEK 293 cells = test: ROS generation, statements not split by cell line; format: cell-based, human; details: cell line not specified
Procedure: as §5, §6

[7] = tested on: S. aureus ATCC 25,923 cells; test: Stability inside bacterial cells (LC-MS of cell lysate)
P. aeruginosa ATCC 27853 = test: microbe, parasite or virus in culture; format: cell-based, Pseudomonas aeruginosa; details: P. aeruginosa ATCC 27853, MHB
Procedure: as §1, §2

[8] = tested on: Gram-positive and Gram-negative bacteria; format: cell-based; details: MHB, four bacteria
Procedure: as §1, §2

human red blood cells = test: Hemolysis assay; details: 1 h, 37 °C
bacteria = test: Influence of salts: antibacterial activity in MHB2 compared to MHB; format: cell-based; details: MHB2: Ca(II) 20–25 mg/L, Mg(II) 10–12.5 mg/L
Procedure: Additionally, for selected compounds, the aspect of the influence of salts present in the medium on antimicrobial activity was evaluated. […] In the salt-enriched medium, the MIC values determined for TP10-NH2 were up to 40-fold higher than those found in MHB. The phenomenon of reduction of the growth inhibitory activity of antimicrobial peptides at a high salt concentration was previously evidenced by other researchers. It may cause severe limitations for AMPs’ usage as therapeutic agents because of the risk of potential inactivation by salts present in the human body.

Row | SMILES | MIC50 (C. krusei DSM 6128) [µM] | MIC50 [1] [µM] | MIC90 [1] [µM] | MIC50 (E. coli ATCC 25922) [µM] | MIC90 (E. coli ATCC 25922) [µM] | MIC50 [3] [µM] | MIC90 [3] [µM] | MIC50 (C. albicans SC 5314) [µM] | MIC90 (C. albicans SC 5314) [µM] | IC50 (LLC-PK1) [µM] | MIC50 (C. glabrata DSM 11226) [µM] | MIC50 (C. albicans Gu4) [µM] | IC50 (HEK 293 [5]) [µM] | IC50 (Hep G2) [µM] | ROS HL-60 (HL-60) | ROS HEK 293 (HEK 293 [6]) | MIC50 (S. aureus ATCC 29213) [µM] | MIC90 (S. aureus ATCC 29213) [µM] | ROS generation (HL-60 and HEK 293 cells) | MIC50 (P. aeruginosa ATCC 27853) [µM] | further results
1 | CC[C@H](C)[C@H](NC(=O)[C@H](CCCCN)NC(=O)[C@H](CCCCN)NC(=O)[C@H](C)NC(=O)[C@H](CC(C)C)NC(=O)[C@H](C)NC(=O)[C@H](C)NC(=O)[C@H](CC(C)C)NC(=O)[C@H](C)NC(=O)[C@H](CCCCN)NC(=O)[C@H](CC(C)C)NC(=O)[C@H](CC(N)=O)NC(=O)[C@@H](NC(=O)[C@H](CCCCN)NC(=O)CNC(=O)[C@H](CC(C)C)NC(=O)[C@H](CC(C)C)NC(=O)[C@H](Cc1ccc(O)cc1)NC(=O)CNC(=O)[C@H](C)NC(=O)CCSSCCC(=O)N1CCN(c2cc3c(cc2F)c(=O)c(C(=O)O)cn3C2CC2)CC1)[C@@H](C)CC)C(=O)N[C@@H](CC(C)C)C(N)=O [Compound 3, CIP-S-S-TP10-NH2] | 25 (≈ 67.2 µg/mL) | 0.8 (≈ 2.15 µg/mL) | 0.8 (≈ 2.15 µg/mL) | 0.0125 (≈ 0.0336 µg/mL) | 0.025 (≈ 0.0672 µg/mL) | 12.5 (≈ 33.6 µg/mL) | 25 (≈ 67.2 µg/mL) | 6.25 (≈ 16.8 µg/mL) | 25 (≈ 67.2 µg/mL) | 16.8 ± 2.62 | >200 | 6.25 (≈ 16.8 µg/mL) | 13.1 ± 1.22 | 19 ± 2.08 | + (+ <15% positive cells in 24 h) | ++ (++ <10% positive cells in 24 h) | 0.8 (≈ 2.15 µg/mL) | 0.8 (≈ 2.15 µg/mL) | no ROS generation was observed | 0.8 (≈ 2.15 µg/mL) | Stability in PBS and growth media [2]: stable; IC50 [4]: < 50 µM; Stability inside bacterial cells [7]: reduced inside the cell; MIC90 (P. aeruginosa ATCC 27853): 1.6 µM (≈ 4.3 µg/mL)
2 | CC[C@H](C)[C@H](NC(=O)[C@H](CCCCN)NC(=O)[C@H](CCCCN)NC(=O)[C@H](C)NC(=O)[C@H](CC(C)C)NC(=O)[C@H](C)NC(=O)[C@H](C)NC(=O)[C@H](CC(C)C)NC(=O)[C@H](C)NC(=O)[C@H](CCCCN)NC(=O)[C@H](CC(C)C)NC(=O)[C@H](CC(N)=O)NC(=O)[C@@H](NC(=O)[C@H](CCCCN)NC(=O)CNC(=O)[C@H](CC(C)C)NC(=O)[C@H](CC(C)C)NC(=O)[C@H](Cc1ccc(O)cc1)NC(=O)CNC(=O)[C@H](C)NC(=O)c1cn(C2CC2)c2cc(N3CCNCC3)c(F)cc2c1=O)[C@@H](C)CC)C(=O)N[C@@H](CC(C)C)C(N)=O [Compound 2, CIP-TP10-NH2] | 50 (≈ 125 µg/mL) | 1.6 (≈ 3.99 µg/mL) | 1.6 (≈ 3.99 µg/mL) | 1.6 (≈ 3.99 µg/mL) | 1.6 (≈ 3.99 µg/mL) | 6.25 (≈ 15.6 µg/mL) | 12.5 (≈ 31.2 µg/mL) | 12.5 (≈ 31.2 µg/mL) | 12.5 (≈ 31.2 µg/mL) | 27.1 ± 1.82 | >200 | 25 (≈ 62.4 µg/mL) | 10.4 ± 1.39 | 11.5 ± 2.03 | ++ (++ <10% positive cells in 24 h) | ++ (++ <10% positive cells in 24 h) | 0.8 (≈ 2 µg/mL) | 0.8 (≈ 2 µg/mL) | no ROS generation was observed |  | MIC values, range over tested bacteria [8]: 0.8 to 3.125 µM; MHC50 (concentration causing 50% hemolysis) (human red blood cells): 25 µg/mL; MHC50 (concentration causing 50% hemolysis) (human red blood cells; converted from μg/mL): ~ 10 μM
3 | CC[C@H](C)[C@H](NC(=O)[C@H](CCCCN)NC(=O)[C@H](CCCCN)NC(=O)[C@H](C)NC(=O)[C@H](CC(C)C)NC(=O)[C@H](C)NC(=O)[C@H](C)NC(=O)[C@H](CC(C)C)NC(=O)[C@H](C)NC(=O)[C@H](CCCCN)NC(=O)[C@H](CC(C)C)NC(=O)[C@H](CC(N)=O)NC(=O)[C@@H](NC(=O)[C@H](CCCCN)NC(=O)CNC(=O)[C@H](CC(C)C)NC(=O)[C@H](CC(C)C)NC(=O)[C@H](Cc1ccc(O)cc1)NC(=O)CNC(=O)[C@H](C)NC(=O)CN1CCN(c2cc3c(cc2F)c(=O)c(C(=O)O)cn3C2CC2)CC1)[C@@H](C)CC)C(=O)N[C@@H](CC(C)C)C(N)=O [Compound 1, CIP-CH2CO-TP10-NH2] | 50 (≈ 128 µg/mL) | 6.25 (≈ 16 µg/mL) | 12.5 (≈ 31.9 µg/mL) | 25 (≈ 63.8 µg/mL) | 25 (≈ 63.8 µg/mL) | 100 (≈ 255 µg/mL) | 200 (≈ 511 µg/mL) | 50 (≈ 128 µg/mL) | 100 (≈ 255 µg/mL) | 17.8 ± 1.93 | >200 | 50 (≈ 128 µg/mL) | 10.8 ± 1.87 | 21.7 ± 2.18 |  |  | 12.5 (≈ 31.9 µg/mL) | 12.5 (≈ 31.9 µg/mL) |  | >100 | Influence of salts (MHB2 vs MHB) on antibacterial activity (bacteria): slight decrease of antibacterial activity; MIC90 (P. aeruginosa ATCC 27853): >100 µM
